Reference: patent US11382892B2, “Method for administration” (Hoffmann-La Roche Inc., priority 2012, dated 2022)

Experiment: Toxicity summary (body weight, mortality) in SJSA1 xenograft study
Assay type: in vivo
Source text: In the examples below, weight loss was graphically represented as percent change in mean group body weight, using the formula: ((W−W0)/W0)×100, where ‘W’ represents mean body weight of the treated group at a particular day, and ‘W0’ represents mean body weight of the same treated group at initiation of treatment.
Female athymic Crl:NU-Foxn1nu mice (10/group), obtained from Charles River Laboratories (Wilmington, Del.) were utilized when they were approximately 10-12 weeks of age and weighed 23-25 g. The health of the mice was assessed daily by gross observation and analyses of blood samples taken from sentinel animals housed on shared shelf racks. All animals were allowed to acclimate and recover from any shipping-related stress for a minimum of 72 hours prior to experimental use. Autoclaved water and irradiated food (5058-ms Pico Lab mouse chow, Purina Mills, Richmond, Ind.) were provided ad libitum, and the animals were maintained on a 12 hour light and dark cycle. Cages, bedding and water bottles were autoclaved before use and changed weekly. All animal experiments were conducted in accordance with the Guide for the Care and Use of Laboratory Animals, local regulations, and protocols approved by the Roche Animal Care and Use Committee in an AAALAC accredited facility.
Treatment duration was 2-4 weeks. Dates of tumor implant, treatment initiation (study start date), and termination of treatment (study end date) can be found in Table 6 below. The starting tumor volume for this study was about 220 mm^3. Tumor volumes and animal body weights were measured three times per week and animals were monitored for clinical signs daily.

[1] = 100 mg/kg QD po 2 on/12 off x 2
[2] = 200 mg/kg (two 100 mg/kg doses 8 hr apart) 1x/wk po

**Q.** Which “# of animals ≥20% BWL” value (7.5 mg/kg QD po) does the source give for `COc1cc(C(=O)O)ccc1NC(=O)[C@@H]1N[C@@H](CC(C)(C)C)[C@](C#N)(c2ccc(Cl)cc2F)[C@H]1c1cccc(Cl)c1F` [Compound A, 4-{[(2R,3S,4R,5S)-4-(4-Chloro-2-fluoro-phenyl)-3-(3-chloro-2-fluoro-phenyl)-4-cyano-5-(2,2-dimethyl-propyl)-pyrrolidine-2-carbonyl]-amino}-3-methoxy-benzoic acid] here?
**A.** 0

**Q.** And the “% Change in Body Weight at end of Study Day 29” value (“% Change in Body Weight at end” for short) (7.5 mg/kg QD po)?
**A.** 9.0%

**Q.** What about the “Maximum % Weight gain” value (7.5 mg/kg QD po) of the same compound?
**A.** 9.0%

**Q.** And the “Maximum % Weight loss” value (7.5 mg/kg QD po)?
**A.** −0.3%

**Q.** And the Mortality (7.5 mg/kg QD po)?
**A.** 0

**Q.** What about the “# of animals ≥20% BWL” value (15 mg/kg QD po) of the same compound?
**A.** 0

**Q.** What about the “% Change in Body Weight at end” value (15 mg/kg QD po) of the same compound?
**A.** 5.9%

**Q.** What about the “Maximum % Weight gain” value (15 mg/kg QD po) of the same compound?
**A.** 5.9%

**Q.** What about the “Maximum % Weight loss” value (15 mg/kg QD po) of the same compound?
**A.** −2.2%

**Q.** What about the Mortality (15 mg/kg QD po) of the same compound?
**A.** 0

**Q.** And the “# of animals ≥20% BWL” value (20 mg/kg QD po 20 on/8 off)?
**A.** 0

**Q.** What about the “% Change in Body Weight at end” value (20 mg/kg QD po 20 on/8 off) of the same compound?
**A.** 1.2%

**Q.** What about the “Maximum % Weight gain” value (20 mg/kg QD po 20 on/8 off) of the same compound?
**A.** 1.2%

**Q.** What about the “Maximum % Weight loss” value (20 mg/kg QD po 20 on/8 off) of the same compound?
**A.** −3.9%

**Q.** What about the Mortality (20 mg/kg QD po 20 on/8 off) of the same compound?
**A.** 0

**Q.** And the “# of animals ≥20% BWL” value (30 mg/kg QD po)?
**A.** 0

**Q.** What about the “% Change in Body Weight at end” value (30 mg/kg QD po) of the same compound?
**A.** 1.3%

**Q.** What about the “Maximum % Weight gain” value (30 mg/kg QD po) of the same compound?
**A.** 1.3%

**Q.** And the “Maximum % Weight loss” value (30 mg/kg QD po)?
**A.** −0.2%

**Q.** What about the Mortality (30 mg/kg QD po) of the same compound?
**A.** 0

**Q.** What about the “# of animals ≥20% BWL” value (50 mg/kg 1x/wk po) of the same compound?
**A.** 0

**Q.** What about the “% Change in Body Weight at end” value (50 mg/kg 1x/wk po) of the same compound?
**A.** 6.6%

**Q.** What about the “Maximum % Weight gain” value (50 mg/kg 1x/wk po) of the same compound?
**A.** 6.6%

**Q.** What about the “Maximum % Weight loss” value (50 mg/kg 1x/wk po) of the same compound?
**A.** −0.3%

**Q.** What about the Mortality (50 mg/kg 1x/wk po) of the same compound?
**A.** 0

**Q.** What about the “# of animals ≥20% BWL” value (50 mg/kg QD po 2 on/5 off x 4) of the same compound?
**A.** 0

**Q.** What about the “% Change in Body Weight at end” value (50 mg/kg QD po 2 on/5 off x 4) of the same compound?
**A.** 7.1%

**Q.** And the “Maximum % Weight gain” value (50 mg/kg QD po 2 on/5 off x 4)?
**A.** 7.1%

**Q.** What about the “Maximum % Weight loss” value (50 mg/kg QD po 2 on/5 off x 4) of the same compound?
**A.** −0.8%

**Q.** And the Mortality (50 mg/kg QD po 2 on/5 off x 4)?
**A.** 0

**Q.** What about the “# of animals ≥20% BWL” value (50 mg/kg QD po 4 on/10 off x 2) of the same compound?
**A.** 0

**Q.** What about the “% Change in Body Weight at end” value (50 mg/kg QD po 4 on/10 off x 2) of the same compound?
**A.** 1.2%

**Q.** And the “Maximum % Weight gain” value (50 mg/kg QD po 4 on/10 off x 2)?
**A.** 1.2%

**Q.** And the “Maximum % Weight loss” value (50 mg/kg QD po 4 on/10 off x 2)?
**A.** −1.1%

**Q.** What about the Mortality (50 mg/kg QD po 4 on/10 off x 2) of the same compound?
**A.** 0

**Q.** And the “# of animals ≥20% BWL” value (80 mg/kg QD po 5 on/23 off)?
**A.** 0

**Q.** And the “% Change in Body Weight at end” value (80 mg/kg QD po 5 on/23 off)?
**A.** 8.0%

**Q.** What about the “Maximum % Weight gain” value (80 mg/kg QD po 5 on/23 off) of the same compound?
**A.** 8.0%

**Q.** And the “Maximum % Weight loss” value (80 mg/kg QD po 5 on/23 off)?
**A.** 0.3%

**Q.** What about the Mortality (80 mg/kg QD po 5 on/23 off) of the same compound?
**A.** 0

**Q.** And the “# of animals ≥20% BWL” value (100 mg/kg 1x/wk po)?
**A.** 0

**Q.** And the “% Change in Body Weight at end” value (100 mg/kg 1x/wk po)?
**A.** 9.1%

**Q.** And the “Maximum % Weight gain” value (100 mg/kg 1x/wk po)?
**A.** 9.1%

**Q.** What about the “Maximum % Weight loss” value (100 mg/kg 1x/wk po) of the same compound?
**A.** 4.2%

**Q.** And the Mortality (100 mg/kg 1x/wk po)?
**A.** 0

**Q.** And the “# of animals ≥20% BWL” value (100 mg/kg QD po 2 on/5 off x 4)?
**A.** 0

**Q.** What about the “% Change in Body Weight at end” value (100 mg/kg QD po 2 on/5 off x 4) of the same compound?
**A.** 1.3%

**Q.** What about the “Maximum % Weight gain” value (100 mg/kg QD po 2 on/5 off x 4) of the same compound?
**A.** 1.3%

**Q.** And the “Maximum % Weight loss” value (100 mg/kg QD po 2 on/5 off x 4)?
**A.** −2.8%

**Q.** What about the Mortality (100 mg/kg QD po 2 on/5 off x 4) of the same compound?
**A.** 0

**Q.** What about the “# of animals ≥20% BWL” value [1] of the same compound?
**A.** 0

**Q.** What about the “% Change in Body Weight at end” value [1] of the same compound?
**A.** 0.9%

**Q.** What about the “Maximum % Weight gain” value [1] of the same compound?
**A.** 1.8%

**Q.** And the “Maximum % Weight loss” value [1]?
**A.** −0.6%

**Q.** What about the Mortality [1] of the same compound?
**A.** 0

**Q.** And the “# of animals ≥20% BWL” value [2]?
**A.** 0

**Q.** What about the “% Change in Body Weight at end” value [2] of the same compound?
**A.** 6.3%

**Q.** What about the “Maximum % Weight gain” value [2] of the same compound?
**A.** 6.3%

**Q.** What about the “Maximum % Weight loss” value [2] of the same compound?
**A.** 1.9%

**Q.** What about the Mortality [2] of the same compound?
**A.** 0
